Test results published in ChEMBL document CHEMBL1138480, “Discovery of highly potent and selective biphenylacylsulfonamide-based beta3-adrenergic receptor agonists and evaluation of physical properties as potential overactive bladder therapies: part 5” (J Med Chem, 2009).

Key:
[1] = Inhibition of KCl-induced tonic contraction in Beagle dog detrusor muscle strips preincubated for 15 mins before KCl challenge; format: functional; settings: Canis lupus familiaris
[2] = target: Beta-3 adrenergic receptor (Homo sapiens, UniProt P13945); test: Agonist activity at human recombinant beta3 adrenergic receptor expressed in CHO cells assessed as cAMP accumulation by enzyme immunoassay; format: functional, cell-based
[3] = target: Beta-3 adrenergic receptor (Canis lupus familiaris, UniProt O02662); test: Agonist activity at dog recombinant beta3 adrenergic receptor expressed in CHO cells assessed as cAMP accumulation by enzyme immunoassay; format: functional, cell-based
[4] = AUC (0 to 24 hrs) in Beagle dog at 0.10 mg/kg, po by cassette assay; format: ADME, organism-based, Canis lupus familiaris; design: time < 24 hr, dose 0.1 mg/kg, route oral; settings: plasma, 0.1 mg/kg
[5] = test system: Canis familiaris; test: Inhibition of carbachol-induced increase in intravesical pressure in Beagle dog OAB model at 10 ug/kg, iv for 30 mins measured for 180 mins; format: functional; settings: Canis lupus familiaris
[6] = target: Beta-1 adrenergic receptor (Homo sapiens, UniProt P08588)
Description: Agonist activity at human recombinant beta-1 adrenergic receptor expressed in CHO cells assessed as cAMP accumulation by enzyme immunoassay

[7] = Cmax in Beagle dog at 0.10 mg/kg, po by cassette assay; format: ADME, organism-based, Canis lupus familiaris; design: dose 0.1 mg/kg, route oral; settings: in vivo, 0.1 mg/kg
[8] = Bioavailability in Beagle dog at 0.10 mg/kg, po and iv by cassette assay; format: ADME, organism-based, Canis lupus familiaris; settings: in vivo, 0.1 mg/kg
[9] = Ratio of EC50 for inhibition of KCl-induced tonic contraction in anesthetized Beagle dog detrusor muscle strip to EC50 for dog recombinant beta3 adrenergic receptor expressed in CHO cells; design: species or system Canis lupus familiaris
[10] = Total clearance in Beagle dog at 0.10 mg/kg, iv by cassette assay; format: ADME, organism-based, Canis lupus familiaris; design: dose 0.1 mg/kg, route intravenous; settings: in vivo, 0.1 mg/kg
[11] = Terminal half life in Beagle dog plasma at 0.10 mg/kg, iv by cassette assay; format: ADME, organism-based, Canis lupus familiaris; design: dose 0.1 mg/kg, route intravenous; settings: 0.1 mg/kg, read-out: beta t1/2 (converted)
[12] = test system: Canis familiaris; test: Ratio of Cmax for drug to Cmax for (R)-4'-(2-(2-(3-chlorophenyl)-2-hydroxyethylamino)ethyl)-3-isopropoxybiphenyl-4-carboxylic acid in beagle dog at 0.1 or 0.2 mg/kg, po by cassette assay; format: ADME, organism-based, Canis lupus familiaris; design: dose 0.2 mg/kg, route oral; settings: in vivo
[13] = target: Beta-2 adrenergic receptor (Homo sapiens, UniProt P07550)
Description: Agonist activity at human recombinant beta2 adrenergic receptor expressed in CHO cells assessed as cAMP accumulation by enzyme immunoassay

[14] = AUC (0 to 24 hrs) in Beagle dog at 0.10 mg/kg, po; format: ADME, organism-based, Canis lupus familiaris; design: time < 24 hr, dose 0.1 mg/kg, route oral; settings: plasma, 0.1 mg/kg
[15] = test system: Canis familiaris; test: Inhibition of carbachol-induced increase in intravesical pressure in intraduodenally dosed Beagle dog OAB model for 30 mins measured for 180 mins; format: functional, organism-based; settings: Canis lupus familiaris
[16] = Cmax in rat at 0.32 mg/kg, po by cassette assay; format: ADME, organism-based; design: dose 0.32 mg/kg, route oral; settings: in vivo
[17] = Terminal half life in monkey plasma at 0.32 mg/kg, iv by cassette assay; format: ADME, organism-based, Macaca mulatta; design: dose 0.32 mg/kg, route intravenous; settings: rhesus monkey, read-out: beta t1/2 (converted)
[18] = AUC (0 to 24 hrs) in rat at 0.32 mg/kg, po by cassette assay; format: ADME, organism-based; design: time < 24 hr, dose 0.32 mg/kg, route oral; settings: plasma
[19] = Total clearance in rat at 0.32 mg/kg, iv by cassette assay; format: ADME, organism-based; design: dose 0.32 mg/kg, route intravenous; settings: in vivo
[20] = Total clearance in monkey at 0.32 mg/kg, iv by cassette assay; format: ADME, organism-based, Macaca mulatta; design: dose 0.32 mg/kg, route intravenous; settings: rhesus monkey, in vivo
[21] = Cmax in monkey at 0.32 mg/kg, po by cassette assay; format: ADME, organism-based, Macaca mulatta; design: dose 0.32 mg/kg, route oral; settings: rhesus monkey, in vivo
[22] = Bioavailability in monkey at 0.32 mg/kg, po and iv by cassette assay; format: ADME, organism-based, Macaca mulatta; settings: rhesus monkey, in vivo
[23] = AUC (0 to 24 hrs) in monkey at 0.32 mg/kg, po by cassette assay; format: ADME, organism-based, Macaca mulatta; design: time < 24 hr, dose 0.32 mg/kg, route oral; settings: rhesus monkey, plasma
[24] = Metabolic stability in rat liver microsomes assessed as intrinsic clearance after 120 mins in presence of NADPH; format: ADME, Microsome
[25] = Cmax in Beagle dog at 0.10 mg/kg, po; format: ADME, organism-based, Canis lupus familiaris; design: dose 0.1 mg/kg, route oral; settings: in vivo, 0.1 mg/kg
[26] = Terminal half life in rat plasma at 0.32 mg/kg, iv by cassette assay; format: ADME, organism-based; design: dose 0.32 mg/kg, route intravenous; settings: read-out: beta t1/2 (converted)
[27] = Terminal half life in Beagle dog at 0.10 mg/kg, po; format: ADME, organism-based, Canis lupus familiaris; design: dose 0.1 mg/kg, route oral; settings: in vivo, 0.1 mg/kg, read-out: beta t1/2 (converted)
[28] = Protein binding in Beagle dog serum; format: ADME, cell-free, Canis lupus familiaris; settings: read-out: PPB (converted)
[29] = Total clearance in Beagle dog at 0.10 mg/kg, iv; settings: in vivo, 0.1 mg/kg
[30] = Bioavailability in Beagle dog at 0.10 mg/kg, po and iv; format: ADME, organism-based, Canis lupus familiaris; settings: in vivo, 0.1 mg/kg
[31] = Bioavailability in rat at 0.32 mg/kg, po and iv by cassette assay; format: ADME, organism-based; settings: in vivo
[32] = Metabolic stability in human liver microsomes assessed as intrinsic clearance after 120 mins in presence of NADPH; format: ADME, Microsome
[33] = Metabolic stability in monkey liver microsomes assessed as intrinsic clearance after 120 mins in presence of NADPH; format: ADME, Macaca mulatta, Microsome; settings: rhesus monkey
[34] = Metabolic stability in dog liver microsomes assessed as intrinsic clearance after 120 mins in presence of NADPH; format: ADME, Canis lupus familiaris, Microsome

Chain of Beta-3 adrenergic receptor (Homo sapiens, UniProt P13945) (P13945 whole entry): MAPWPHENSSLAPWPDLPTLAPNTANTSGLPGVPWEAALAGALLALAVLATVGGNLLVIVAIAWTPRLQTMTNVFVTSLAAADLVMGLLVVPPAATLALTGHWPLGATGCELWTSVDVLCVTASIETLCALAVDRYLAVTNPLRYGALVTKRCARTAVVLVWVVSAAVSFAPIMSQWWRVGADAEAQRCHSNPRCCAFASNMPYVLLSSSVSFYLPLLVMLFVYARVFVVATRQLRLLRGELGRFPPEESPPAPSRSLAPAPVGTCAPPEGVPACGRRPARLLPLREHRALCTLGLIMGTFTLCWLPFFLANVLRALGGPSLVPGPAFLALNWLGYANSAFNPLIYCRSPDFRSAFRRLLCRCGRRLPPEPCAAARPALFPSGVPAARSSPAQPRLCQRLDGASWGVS
Chain of Beta-2 adrenergic receptor (P07550 whole entry): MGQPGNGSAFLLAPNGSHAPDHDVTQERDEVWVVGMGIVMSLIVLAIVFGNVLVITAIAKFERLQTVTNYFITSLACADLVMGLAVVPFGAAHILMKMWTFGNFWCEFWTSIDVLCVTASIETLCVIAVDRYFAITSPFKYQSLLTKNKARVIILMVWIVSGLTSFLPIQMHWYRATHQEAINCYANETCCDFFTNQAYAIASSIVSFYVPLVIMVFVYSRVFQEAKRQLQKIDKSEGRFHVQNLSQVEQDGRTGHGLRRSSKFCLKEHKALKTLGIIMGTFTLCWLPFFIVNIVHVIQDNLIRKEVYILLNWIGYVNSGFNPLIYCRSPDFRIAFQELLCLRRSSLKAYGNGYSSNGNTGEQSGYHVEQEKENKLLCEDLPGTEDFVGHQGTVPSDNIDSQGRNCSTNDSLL
Chain of Beta-1 adrenergic receptor (P08588 whole entry): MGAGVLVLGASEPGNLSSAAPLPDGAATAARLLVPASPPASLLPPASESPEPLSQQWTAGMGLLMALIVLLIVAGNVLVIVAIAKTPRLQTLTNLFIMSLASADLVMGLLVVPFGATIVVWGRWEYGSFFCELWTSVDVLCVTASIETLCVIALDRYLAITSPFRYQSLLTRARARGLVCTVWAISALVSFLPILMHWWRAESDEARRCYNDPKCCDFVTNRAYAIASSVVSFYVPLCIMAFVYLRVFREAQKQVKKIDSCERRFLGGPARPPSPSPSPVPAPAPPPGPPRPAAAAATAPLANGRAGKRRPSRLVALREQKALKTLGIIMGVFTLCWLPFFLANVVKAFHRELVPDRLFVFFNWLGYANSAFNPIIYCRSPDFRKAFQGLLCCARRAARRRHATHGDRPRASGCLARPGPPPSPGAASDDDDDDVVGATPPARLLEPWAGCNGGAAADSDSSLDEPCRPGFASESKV
Chain of Beta-3 adrenergic receptor (Canis lupus familiaris, UniProt O02662) (O02662 whole entry): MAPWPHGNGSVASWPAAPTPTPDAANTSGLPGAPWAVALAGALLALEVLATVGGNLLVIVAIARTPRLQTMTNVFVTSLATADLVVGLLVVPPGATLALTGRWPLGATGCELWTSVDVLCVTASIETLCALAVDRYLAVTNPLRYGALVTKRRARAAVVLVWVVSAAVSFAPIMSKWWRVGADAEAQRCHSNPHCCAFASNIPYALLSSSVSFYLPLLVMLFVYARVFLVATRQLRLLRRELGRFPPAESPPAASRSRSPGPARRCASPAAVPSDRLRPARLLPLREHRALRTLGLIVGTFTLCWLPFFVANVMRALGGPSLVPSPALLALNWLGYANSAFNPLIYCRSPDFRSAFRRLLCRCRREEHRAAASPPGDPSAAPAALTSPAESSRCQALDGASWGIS

CS(=O)(=O)NC(=O)c1ccc(-c2ccc(CCNC[C@H](O)c3ccccc3)cc2)cc1OC1CCCCC1.Cl
EC50 ([1]; read-out: EC50): > 50 nM
EC50 ([1]; read-out: pEC50 (converted)): 12.6 nM
EC50 ([2]; read-out: EC50): 0.43 nM
EC50 ([2]; read-out: pEC50 (converted)): 0.126 nM
EC50 ([3]; read-out: EC50): 0.83 nM
AUC(0-t) at 24 h [4]: 363 ng·h/mL
inhibition in vivo at 0.01 mg/kg [5]: 58%
EC50 [6]: > 1000 nM
Cmax [7]: 22.2 ng/mL
bioavailability [8]: 70%
Ratio EC50 [9]: >50
clearance [10]: 3 mL/min/kg
half-life [11]: 468 min

CC(C)Oc1cc(-c2ccc(CCNC[C@H](O)c3cccnc3)cc2)ccc1C(=O)O
EC50 ([1]; read-out: pEC50 (converted)): 7.94 nM
EC50 ([2]; read-out: pEC50 (converted)): 1.58 nM
EC50 ([3]; read-out: pEC50 (converted)): 10 nM
Ratio [12]: 0.65
EC50 [13]: > 10 µM

CC(C)Sc1cc(-c2ccc(CCNC[C@H](O)c3ccccc3)cc2)ccc1C(=O)NS(C)(=O)=O.Cl
AUC(0-t) at 24 h [14]: 215 ng·h/mL
EC50 [15]: 8.2 nM
ED50 [15]: 0.0145 mg/kg
Cmax [16]: 9.9 ng/mL
half-life [17]: 348 min
EC50 ([1]; read-out: EC50): 11.4 nM
AUC(0-t) at 24 h [18]: 108 ng·h/mL
EC50 ([2]; read-out: EC50): 0.32 nM
EC50 ([3]; read-out: EC50): 0.68 nM
AUC(0-t) at 24 h [4]: 441 ng·h/mL
inhibition in vivo at 0.01 mg/kg [5]: > 70%
EC50 [6]: > 1000 nM
Cmax [7]: 39.8 ng/mL
clearance [19]: 19.6 mL/min/kg
clearance [20]: 9.2 mL/min/kg
bioavailability [8]: 75%
Cmax [21]: 15.7 ng/mL
bioavailability [22]: 24%
AUC(0-t) at 24 h [23]: 143 ng·h/mL
clearance [10]: 2.9 mL/min/kg
CLint scaled [24]: 84.3 mL/min/kg
EC50 [13]: > 10 µM
Cmax [25]: 18.2 ng/mL
half-life [26]: 138 min
half-life [27]: 288 min
fraction unbound [28]: 0.1
clearance [29]: 5.1 mL/min/kg
bioavailability [30]: 62%
bioavailability [31]: 41%
half-life [11]: 258 min

CC(C)Cc1cc(-c2ccc(CCNC[C@H](O)c3ccccc3)cc2)ccc1C(=O)NS(C)(=O)=O.Cl
EC50 [15]: 14.2 nM
ED50 [15]: 0.0247 mg/kg
Cmax [16]: 6.4 ng/mL
EC50 ([1]; read-out: EC50): 2.6 nM
AUC(0-t) at 24 h [18]: 64.8 ng·h/mL
EC50 ([2]; read-out: EC50): 0.46 nM
EC50 ([3]; read-out: EC50): 0.88 nM
AUC(0-t) at 24 h [4]: 210 ng·h/mL
inhibition in vivo at 0.01 mg/kg [5]: > 70%
EC50 [6]: > 1000 nM
Cmax [7]: 24.9 ng/mL
clearance [19]: 35.2 mL/min/kg
bioavailability [8]: 67%
clearance [10]: 5.3 mL/min/kg
EC50 [13]: > 10 µM
half-life [26]: 150 min
fraction unbound [28]: 0.08
bioavailability [31]: 40%
half-life [11]: 210 min

CS(=O)(=O)NC(=O)c1ccc(-c2ccc(CCNC[C@H](O)c3cccnc3)cc2)cc1OC1CCCCC1.Cl.Cl
EC50 [15]: 26.5 nM
ED50 [15]: 0.0162 mg/kg
Cmax [16]: 17 ng/mL
half-life [17]: 282 min
CLint scaled [32]: 3.5 mL/min/kg
EC50 ([1]; read-out: EC50): 62 nM
AUC(0-t) at 24 h [18]: 72.2 ng·h/mL
EC50 ([2]; read-out: EC50): 0.13 nM
EC50 ([3]; read-out: EC50): 1.4 nM
AUC(0-t) at 24 h [4]: 385 ng·h/mL
inhibition in vivo at 0.01 mg/kg [5]: > 70%
EC50 [6]: 800 nM
Cmax [7]: 34.5 ng/mL
clearance [19]: 17.1 mL/min/kg
clearance [20]: 7.5 mL/min/kg
bioavailability [8]: 81%
Ratio EC50 [9]: >50
Cmax [21]: 35.1 ng/mL
bioavailability [22]: 38%
AUC(0-t) at 24 h [23]: 272 ng·h/mL
clearance [10]: 3.2 mL/min/kg
CLint scaled [24]: 46.9 mL/min/kg
EC50 [13]: > 10 µM
half-life [26]: 180 min
fraction unbound [28]: 0.17
bioavailability [31]: 25%
CLint scaled [33]: 3.4 mL/min/kg
half-life [11]: 330 min

CC(C)Nc1cc(-c2ccc(CCNC[C@H](O)c3ccccc3)cc2)ccc1C(=O)NS(C)(=O)=O.Cl.Cl
EC50 [15]: 7.1 nM
ED50 [15]: 0.0349 mg/kg
Cmax [16]: 14.9 ng/mL
half-life [17]: 186 min
EC50 ([1]; read-out: EC50): 1.2 nM
AUC(0-t) at 24 h [18]: 60.9 ng·h/mL
EC50 ([2]; read-out: EC50): 0.6 nM
EC50 ([3]; read-out: EC50): 1.1 nM
AUC(0-t) at 24 h [4]: 95.8 ng·h/mL
inhibition in vivo at 0.01 mg/kg [5]: > 70%
EC50 [6]: 260 nM
Cmax [7]: 8.6 ng/mL
clearance [19]: 16.9 mL/min/kg
CLint scaled [34]: 3.3 mL/min/kg
clearance [20]: 25.9 mL/min/kg
bioavailability [8]: 45%
Cmax [21]: 2.7 ng/mL
bioavailability [22]: 10%
AUC(0-t) at 24 h [23]: 19.3 ng·h/mL
clearance [10]: 7.5 mL/min/kg
CLint scaled [24]: 36 mL/min/kg
EC50 [13]: > 10 µM
half-life [26]: 246 min
fraction unbound [28]: 0.1
bioavailability [31]: 20%
CLint scaled [33]: 5.4 mL/min/kg
half-life [11]: 378 min

CC(C)Cc1cc(-c2ccc(CCNC[C@H](O)c3cccnc3)cc2)ccc1C(=O)O
Ratio [12]: 0.36

CS(=O)(=O)NC(=O)c1ccc(-c2ccc(CCNC[C@H](O)c3cnccc3N)cc2)cc1OC1CCCCC1.Cl.Cl
ED50 [15]: 0.0143 mg/kg
Cmax [16]: 3.3 ng/mL
AUC(0-t) at 24 h [18]: 6.3 ng·h/mL
AUC(0-t) at 24 h [4]: 26.7 ng·h/mL
Cmax [7]: 2.5 ng/mL
clearance [19]: 36.4 mL/min/kg
clearance [20]: 52 mL/min/kg
bioavailability [8]: 54%
bioavailability [22]: 0%
clearance [10]: 34.9 mL/min/kg
half-life [26]: 102 min
bioavailability [31]: 5%
half-life [11]: 402 min

O=C(O)c1ccc(-c2ccc(CCNC[C@H](O)c3cccnc3)cc2)cc1OC1CCCCC1
EC50 [15]: 4 nM
ED50 [15]: 0.065 mg/kg
EC50 ([1]; read-out: EC50): 14.1 nM
EC50 ([1]; read-out: pEC50 (converted)): 5.01 nM
EC50 ([2]; read-out: pEC50 (converted)): 0.251 nM
EC50 ([3]; read-out: pEC50 (converted)): 1.26 nM
Ratio [12]: 0.48
EC50 [13]: > 10 µM
fraction unbound [28]: 0.11
